Experimental findings from patent US9605005B2, “Alkynyl alcohols and methods of use” (Genentech, Inc., priority 2013, dated 2017) are described below.

Sequence of nuclear factor-kappa B (NF-kB)-inducing kinase (NIK) (Q99558 whole entry): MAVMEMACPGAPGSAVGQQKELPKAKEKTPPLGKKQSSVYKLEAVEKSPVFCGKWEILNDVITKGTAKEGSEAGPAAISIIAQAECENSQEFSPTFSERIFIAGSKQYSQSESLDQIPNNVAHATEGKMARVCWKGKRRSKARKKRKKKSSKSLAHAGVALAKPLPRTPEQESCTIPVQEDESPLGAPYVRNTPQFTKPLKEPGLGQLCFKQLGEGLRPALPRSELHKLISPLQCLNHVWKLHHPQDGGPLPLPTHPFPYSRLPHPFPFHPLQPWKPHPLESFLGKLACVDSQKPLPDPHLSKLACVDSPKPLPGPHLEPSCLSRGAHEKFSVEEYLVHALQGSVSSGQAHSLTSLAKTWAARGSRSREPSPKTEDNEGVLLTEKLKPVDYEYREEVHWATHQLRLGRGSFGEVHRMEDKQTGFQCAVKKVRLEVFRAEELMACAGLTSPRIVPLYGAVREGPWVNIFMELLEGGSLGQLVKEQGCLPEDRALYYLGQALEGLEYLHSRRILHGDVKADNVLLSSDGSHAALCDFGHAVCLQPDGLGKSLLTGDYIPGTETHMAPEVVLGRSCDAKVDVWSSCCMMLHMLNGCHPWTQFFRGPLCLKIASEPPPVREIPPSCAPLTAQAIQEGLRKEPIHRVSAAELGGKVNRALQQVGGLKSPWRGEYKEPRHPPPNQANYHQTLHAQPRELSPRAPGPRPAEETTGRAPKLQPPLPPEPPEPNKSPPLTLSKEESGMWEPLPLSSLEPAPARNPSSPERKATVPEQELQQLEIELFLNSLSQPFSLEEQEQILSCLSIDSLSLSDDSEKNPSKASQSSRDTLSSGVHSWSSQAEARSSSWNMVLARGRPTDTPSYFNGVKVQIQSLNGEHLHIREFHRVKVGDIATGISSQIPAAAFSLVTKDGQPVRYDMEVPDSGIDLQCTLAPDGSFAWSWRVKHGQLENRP

This assay concerns the target nuclear factor-kappa B (NF-kB)-inducing kinase (NIK) (Homo sapiens (Human), UniProt Q99558). Description: NIK enzyme inhibition assay (Transcreener ADP, NIK ADP-FP). The class given is biochemical. Conditions: purified NIK 0.5 nM, 10 μM ATP, fluorescence polarization; read-out: NIK ADP-FP (Ki μM). (In fluorescence polarisation assays a small probe gives low polarisation when free and higher when bound to something large.)
Usually Ki stands for the equilibrium dissociation constant of an inhibitor or competing ligand from its target. Take `CNC(=O)c1ccc2c(c1)c(C(N)=O)nn2-c1cccc(C#C[C@]2(O)CCN(C)C2=O)c1` [Compound 112, 1-[3-[2-[(3R)-3-hydroxy-1-methyl-2-oxo-pyrrolidin-3-yl]ethynyl]phenyl]-N5-meth-yl-indazole-3,5-dicarbox-amide]: the Ki came out at 0.08 nM.

As for `CN1CC[C@@](O)(C#Cc2cccc(-n3nc(C(N)=O)c4c3CCC[C@@H]4NC(=O)C3CC3)c2)C1=O` [Compound 37, (4S)-4-(cyclopropanecarbo-nylamino)-1-[3-[2-[(3R)-3-hydroxy-1-methyl-2-oxo-pyrrolidin-3-yl]ethynyl]phen-yl]-4,5,6,7-tetrahydroindazole-3-carboxamide], the Ki stood at 193 nM.

With `NC(=O)c1nn(-c2cccc(C#C[C@@]3(O)CCOC3=O)c2)c2ccccc12` [Compound 172, 1-[3-[2-[(3)S-3-hydroxy-2-oxo-tetrahydrofuran-3-yl]eth-ynyl]phenyl]indazole-3-carbox-amide], the Ki was determined as 473 nM.

Regarding `CN1CC[C@@](O)(C#Cc2ccnc(-n3nc(C(N)=O)c4c3C[C@H](O)CC4)c2)C1=O` [Compound 61, (6R)-6-hydroxy-1-[4-[2-[(3R)-3-hydroxy-1-methyl-2-oxo-pyrrolidin-3-yl]ethynyl]-2-pyridyl]-4,5,6,7-tetrahydro-indazole-3-carboxamide], the Ki is 4.46 nM.

Regarding `CN1CC[C@@](O)(C#Cc2cccc(-n3nc(C(N)=O)c4[nH]c(=O)ccc43)c2)C1=O` [Compound 108, 1-[3-[2-[(3R)-3-hydroxy-1-methyl-2-oxo-pyrrolidin-3-yl]ethynyl]phenyl]-5-oxo-4H-pyrazolo[4,3-b]pyridine-3-carboxamide], the Ki turned out to be 0.24 nM.

With `CN1CC[C@@](O)(C#Cc2cccc(-n3nc(C(N)=O)c4c3CCNC4)c2)C1=O` [Compound 21, 1-[3-[2-[(3R)-3-hydroxy-1-methyl-2-oxo-pyrrolidin-3-yl]ethynyl]phenyl]-4,5,6,7-tetra-hydropyrazolo[4,3-c]pyri-dine-3-carboxamide], the Ki came to 233 nM.

In the case of `CN1CC[C@@](O)(C#Cc2cccc(-n3nc(C(N)=O)c4c3CC(F)(F)C4)c2)C1=O` [Compound 199, 5,5-difluoro-1-[3-[2-[(3R)-3-hydroxy-1-methyl-2-oxo-pyrrolidin-3-yl]ethynyl]phenyl]-4,6-dihydrocyclopenta [c]pyrazole-3-carboxamide], the Ki amounted to 0.26 nM.

`CN1CC[C@@](O)(C#Cc2ccnc(-n3nc(C(N)=O)c4c3CC(C)(C)[C@@H](O)C4)c2)C1=O` [Compound 11, (5S)-5-hydroxy-1-[4-[2-[(3R)-3-hydroxy-1-methyl-2-oxo-pyrrolidin-3-yl]ethynyl]-2-pyridyl]-6,6-dimethyl-5,7-dihydro-4H-indazole-3-carboxamide]: the Ki was determined as 13.4 nM.

In the case of `CN1CC[C@@](O)(C#Cc2cccc(-n3nc(C(N)=O)c4cnc(C#N)cc43)c2)C1=O` [Compound 133, 6-cyano-1-[3-[2-[(3R)-3-hy-droxy-1-methyl-2-oxo-pyrroli-din-3-yl]ethynyl]phenyl] pyrazolo[4,3-c]pyridine-3-carboxamide], the Ki turned out to be 1.31 nM.

As to `CN1C[C@@H](O)[C@@](O)(C#Cc2cccc(-n3nc(C(N)=O)c4ccccc43)c2)C1=O` [Compound 126, 1-[3-[2-[(3S,4R)-3,4-dihydroxy-1-methyl-2-oxo-pyrroli-din-3-yl]ethynyl]phenyl]inda-zole-3-carboxamide], the Ki was determined as 591 nM.

With `Cc1cc([C@](C)(O)C#Cc2ccnc(-n3nc(C(N)=O)c(Cl)c3C)c2)no1` [Compound 82, 4-chloro-1-[4-[(3R)-3-hydroxy-3-(5-methylisoxazol-3-yl)but-1-ynyl]-2-pyridyl]-5-methyl-pyrazole-3-carboxamide], the Ki is 99.1 nM.

`CN1C[C@@H](O)[C@](O)(C#Cc2cccc(-n3nc(C(N)=O)c4ccccc43)c2)C1=O` [Compound 127, 1-[3-[2-[(3R,4R)-3,4-dihydroxy-1-methyl-2-oxo-pyrroli-din-3-yl]ethynyl]phenyl]inda-zole-3-carboxamide]: the Ki was 10.2 nM.

Regarding `N#Cc1cc2c(cn1)c(C(N)=O)nn2-c1cccc(C#C[C@]2(O)CCc3cccnc32)c1` [Compound 134, 6-cyano-1-[3-[2-[(7R)-7-hy-droxy-5,6-dihydrocyclopen-ta[b]pyridin-7-yl]ethynyl]phe-nyl]pyrazolo[4,3-c]pyridine-3-carboxamide], the Ki was found to be 1250 nM.

For the molecule `CN1CC[C@@](O)(C#Cc2ccnc(-n3nc(C(N)=O)c4c3CC3CC4C3)c2)C1=O` [Compound 59, (R)-1-(4-((3-hydroxy-1-meth-yl-2-oxopyrrolidin-3-yl)eth-ynyl)pyridin-2-yl)-4,5,6,7-tetrahydro-1H-4,6-methano-indazole-3-carboxamide], the Ki turned out to be 7.2 nM.

Turning to `CN1CC[C@@](O)(C#Cc2cccc(-n3nc(C(N)=O)c4c3NCCC4)c2)C1=O` [Compound 198, 1-[3-[2-[(3R)-3-hydroxy-1-methyl-2-oxo-pyrrolidin-3-yl]ethynyl]phenyl]-4,5,6,7-tetrahydropyrazolo[3,4-b]pyridine-3-carboxamide], the Ki turned out to be 0.29 nM.

`CN1CC[C@@](O)(C#Cc2cccc(-n3nc(C(N)=O)c4c3CCC[C@H]4NC(=O)C3CC3)c2)C1=O` [Compound 32, (4R)-4-(cyclopropanecarbonyl-amino)-1-[3-[2-[(3R)-3-hydroxy-1-methyl-2-oxo-pyrroli-din-3-yl]ethynyl]phenyl]-4,5,6,7-tetrahydroindazole-3-carboxamide]: the Ki was found to be 1040 nM.

With `CN1CC[C@@](O)(C#Cc2ccnc(-n3nc(C(N)=O)c4c3CC(C)(C)CC4)c2)C1=O` [Compound 4, 1-[4-[2-[(3R)-3-hydroxy-1-methyl-2-oxo-pyrrolidin-3-yl]ethynyl]-2-pyridyl]-6,6-dimethyl-5,7-dihydro-4H-inda-zole-3-carboxamide], the Ki stood at 2.92 nM.

In the case of `CN1CC[C@@](O)(C#Cc2cccc(-n3nc(C(N)=O)c4cccc(F)c43)c2)C1=O` [Compound 176, 7-fluoro-1-[3-[2-[(3R)-3-hydroxy-1-methyl-2-oxo-pyrrolidin-3-yl]ethynyl]phenyl] indazole-3-carboxamide], the Ki came out at 1.27 nM.

Take `Cc1nc([C@](C)(O)C#Cc2cccc(-n3nc(C(N)=O)c4ccccc43)c2)no1` [Compound 29, 1-[3-[(3R)-3-hydroxy-3-(5-methyl-1,2,4-oxadiazol-3-yl)but-1-ynyl]phenyl]indazole-3-carboxamide]: the Ki worked out at 36.7 nM.

`CN1CC[C@@](O)(C#Cc2cccc(-n3nc(C(N)=O)c4c3CCC[C@H]4n3cccn3)c2)C1=O` [Compound 34, (4R)-1-[3-[2-[(3R)-3-hydroxy-1-methyl-2-oxo-pyrrolidin-3-yl]ethynyl]phenyl]-4-pyrazol-1-yl-4,5,6,7-tetrahydro-indazole-3-carboxamide]: the Ki is 606 nM.

On to `Cc1cc(C(N)=O)nn1-c1cc(C#C[C@]2(O)CCN(C)C2=O)ccn1` [Compound 79, 1-[4-[2-[(3R)-3-hydroxy-1-methyl-2-oxo-pyrrolidin-3-yl]ethynyl]-2-pyridyl]-5-meth-yl-pyrazole-3-carboxamide], for which the Ki amounted to 10.8 nM.

For `CC(=O)N1CCc2c(c(C(N)=O)nn2-c2cccc(C#C[C@]3(O)CCN(C)C3=O)c2)C1` [Compound 19, 5-acetyl-1-[3-[2-[(3R)-3-hy-droxy-1-methyl-2-oxo-pyrroli-din-3-yl]ethynyl]phenyl]-6,7-dihydro-4H-pyrazolo[4,3-c]pyridine-3-carboxamide], the Ki is 10.2 nM.

As to `CN1CC[C@@](O)(C#Cc2ccc(F)c(-n3nc(C(N)=O)c4c3COC4)c2)C1=O` [Compound 191, 1-[2-fluoro-5-[2-[(3R)-3-hydroxy-1-methyl-2-oxo-pyrrolidin-3-yl]ethynyl]phenyl]-4,6-dihydrofuro[3,4-c] pyrazole-3-carboxamide], the Ki turned out to be 1.11 nM.

On to `CN1CC[C@@](O)(C#Cc2cccc(-n3nc(C(N)=O)c4c3C[C@@]3(C)C(C4)C3(F)F)c2)C1=O` (stereo partly drawn) [Compound 47, (5aS)-5,5-difluoro-1-[3-[2-[(3R)-3-hydroxy-1-methyl-2-oxo-pyrrolidin-3-yl]ethyn-yl]phenyl]-5a-methyl-4a,6-dihydro-4H-cyclopropa[f] indazole-3-carboxamide], for which the Ki amounted to 22.6 nM.

With `CN1CC[C@@](O)(C#Cc2cccc(-n3nc(C(N)=O)c4c3CCCC4(F)F)c2)C1=O` [Compound 24, 4,4-difluoro-1-[3-[2-[(3R)-3-hydroxy-1-methyl-2-oxo-pyrrolidin-3-yl]ethynyl]phe-nyl]-6,7-dihydro-5H-indazole-3-carboxamide], the Ki turned out to be 7.62 nM.

For the molecule `COc1cccc2c(C(N)=O)nn(-c3cccc(C#C[C@]4(O)CCN(C)C4=O)c3)c12` [Compound 23, 1-[3-[2-[(3R)-3-hydroxy-1-methyl-2-oxo-pyrrolidin-3-yl]ethynyl]phenyl]-7-methoxy-indazole-3-carboxamide], the Ki came out at 9.75 nM.

For `CN1CC[C@@](O)(C#Cc2ccnc(-n3nc(C(N)=O)c4c3CC(C)(C)[C@H](OCc3ccccc3)C4)c2)C1=O` [Compound 8, (5R)-5-benzyloxy-1-[4-[2-[(3R)-3-hydroxy-1-methyl-2-oxo-pyrrolidin-3-yl]ethynyl]-2-pyridyl]-6,6-dimethyl-5,7-dihydro-4H-indazole-3-carboxamide], the Ki was 72.4 nM.

Regarding `CC(=O)N1CC(c2cnc3c(c2)c(C(N)=O)nn3-c2cccc(C#C[C@]3(O)CCN(C)C3=O)c2)C1` [Compound 107, 5-(1-acetylazetidin-3-yl)-1-[3-[2-[(3R)-3-hydroxy-1-meth-yl-2-oxo-pyrrolidin-3-yl]ethynyl]phenyl]pyrazolo[3,4-b]pyridine-3-carboxamide], the Ki amounted to 1.82 nM.

Turning to `CN1CC[C@@](O)(C#Cc2cccc(-n3nc(C(N)=O)c4c3[C@@H](O)CC4)c2)C1=O` [Compound 168, (6S)-6-hydroxy-1-[3-[2-[(3R)-3-hydroxy-1-methyl-2-oxo-pyrrolidin-3-yl]ethynyl]phenyl]-5,6-dihydro-4H-cyclo-penta[c]pyrazole-3-carbox-amide], the Ki amounted to 33.7 nM.

As for `CN1CC[C@@](O)(C#Cc2cccc(-n3nc(C(N)=O)c4cc(-c5ncc[nH]5)ccc43)c2)C1=O` [Compound 182, 1-[3-[2-[(3R)-3-hydroxy-1-methyl-2-oxo-pyrrolidin-3-yl]ethynyl]phenyl]-5-(1H-imidazol-2-yl)indazole-3-carboxamide], the Ki worked out at 1.51 nM.
